What all share (format): cell-based
For assay [1], the system named is Acinetobacter baumannii (ATCC 19606). Briefly: microbe, parasite or virus in culture. Particulars: Acinetobacter baumannii, ATCC19606; sample 100 μg/mL, 6 h at 37°C, MTT OD570 vs inoculated broth control; read-out: Inhibitory Percentage (Means±SD), Acinetobacter baumannii ATCC 19606. The text has this: (§1) Pathogenic microorganism composes of Escherichia coli (ATCC 25922), Staphylococcus aureus (ATCC 25923), Staphylococcus epidermidis (ATCC 12228), Bacillus subtilis (ATCC 6633), Bacillus cereus (ATCC 11778), Pseudomonas aeruginosa (ATCC 27853), Vibrio parahaemolyticus (ATCC 17802), Klebsiella pneumoniae (ATCC 27736), Acinetobacter baumannii (ATCC 19606), Enterobacter cloacae (ATCC 13047), Salmonella enterica (ATCC 13311), and Salmonella Typhi (ATCC 22842) were used in the experiments.
(§2) Bacteria were initially cultured on Tryptic Soy Agar (TSA) plates at 37°C for 12–16 hours. A single colony was transferred to Tryptic Soy Broth (TSB) and incubated at 37°C with gently agitation at 100 rpm, for an additional 12–16 hours. The bacterial concentration was adjusted to an optical density at 600 nm (OD600) of 0.05, corresponding to 4 x 10^7 CFU/mL, before being added to a 96-well plate (50 μL per well). Subsequently, 50 μL of protein hydrolysate or peptide was inoculated into each well at a final concentration of 100 μg/mL, and the mixture was incubated at 37°C with continuous shaking at 100 rpm for 6 hours. Wells with inoculated broth alone served as a negative control, while wells containing Ampicillin (100 μg/mL) served as a positive control. Following incubation, 25 μL of a 100 μg/mL MTT (3-(4,5-dimethylthiazol-2-yl)-2,5-diphenyltetrazolium bromide) solution was added to each well, thoroughly mixed, and incubated at room temperature for 4 hours. The optical density at 570 nm (OD570nm) was subsequently measured using a microplate reader (Synergy H1 Hybrid Multi-Mode Reader, Biotek, Winusky, VT, USA). The percentage of inhibition was calculated using the provided equation: [(OD570control–OD570test)/OD570control]×100 (1)

Assay [2] has as its system Salmonella enterica (ATCC 13311). Briefly: microbe, parasite or virus in culture. Conditions: Salmonella enterica, ATCC13311; sample 100 μg/mL, 6 h at 37°C, MTT OD570 vs inoculated broth control; read-out: Inhibitory Percentage (Means±SD), Salmonella enterica ATCC 13311.
From the text: as §1, §2

The test system of assay [3] is Staphylococcus aureus (ATCC 25923). Briefly: microbe, parasite or virus in culture. Particulars: Staphylococcus aureus, ATCC25923; sample 100 μg/mL, 6 h at 37°C, MTT OD570 vs inoculated broth control; read-out: Inhibitory Percentage (Means±SD), Staphylococcus aureus ATCC 25923.
From the text: as §1, §2

In assay [4] the test system is Staphylococcus epidermidis (ATCC 12228). Briefly: microbe, parasite or virus in culture. Conditions: Staphylococcus epidermidis, ATCC12228; sample 100 μg/mL, 6 h at 37°C, MTT OD570 vs inoculated broth control; read-out: Inhibitory Percentage (Means±SD), Staphylococcus epidermidis ATCC 12228.
From the text: as §1, §2

Assay [5] has as its system Bacillus cereus (ATCC 11778). Briefly: Antimicrobial activity assay (broth culture, MTT read-out). Conditions: ATCC11778, sample 100 μg/mL, 6 h at 37°C, MTT OD570 vs inoculated broth control, read-out: Inhibitory Percentage (Means±SD), Bacillus cereus ATCC 11778.
From the text: as §1, §2

The test system of assay [6] is Bacillus subtilis (ATCC 6633). Described as above. Conditions: ATCC6633, sample 100 μg/mL, 6 h at 37°C, MTT OD570 vs inoculated broth control, read-out: Inhibitory Percentage (Means±SD), Bacillus subtilis ATCC 6633.
From the text: as §1, §2

In assay [7] the test system is Enterobacter cloacae (ATCC 13047). Described as above. Particulars: ATCC13047, sample 100 μg/mL, 6 h at 37°C, MTT OD570 vs inoculated broth control, read-out: Inhibitory Percentage (Means±SD), Enterobacter cloacae ATCC 13047.
From the text: as §1, §2

For assay [8], the system named is Escherichia coli (ATCC 25922). The assay is described as above. Conditions: ATCC25922, sample 100 μg/mL, 6 h at 37°C, MTT OD570 vs inoculated broth control, read-out: Inhibitory Percentage (Means±SD), Escherichia coli ATCC 25922.
From the text: as §1, §2

The subject of assay [9] is Klebsiella pneumoniae (ATCC 27736). The description is as above. Conditions: ATCC27736, sample 100 μg/mL, 6 h at 37°C, MTT OD570 vs inoculated broth control, read-out: Inhibitory Percentage (Means±SD), Klebsiella pneumoniae ATCC 27736.
From the text: as §1, §2

Assay [10] relates to Pseudomonas aeruginosa (ATCC 27853). The assay is described as above. Conditions: ATCC27853, sample 100 μg/mL, 6 h at 37°C, MTT OD570 vs inoculated broth control, read-out: Inhibitory Percentage (Means±SD), Pseudomonas aeruginosa ATCC 27853.
From the text: as §1, §2

The test system of assay [11] is Salmonella Typhi (ATCC 22842). The description is as above. Conditions: Salmonella enterica, 6 h, read-out: Inhibitory Percentage (Means±SD), Salmonella Typhi ATCC 22842.
From the text: as §1, §2

Assay [12] has as its system Vibrio parahaemolyticus (ATCC 17802). The assay is described as above. Conditions: ATCC17802, sample 100 μg/mL, 6 h at 37°C, MTT OD570 vs inoculated broth control, read-out: Inhibitory Percentage (Means±SD), Vibrio parahaemolyticus ATCC 17802.
From the text: as §1, §2

Consider `CC1(C)S[C@@H]2[C@H](NC(=O)[C@H](N)c3ccccc3)C(=O)N2[C@H]1C(=O)O` [Ampicillin], for which the inhibition at 100 µg/mL is 42 ± 4.67% in assay [1]; 84.6 ± 4.34% in assay [2]; -2.72 ± 0.02% in assay [3]; 7.42 ± 0.23% in [4]; 35.9 ± 1.46% in assay [5]; 96.5 ± 4.03% in assay [6]. Moreover, the inhibition at 100 µg/mL was 15.6 ± 0.89% in assay [7]; 82.1 ± 2.62% in assay [8]; -19.1 ± 1.32% in [9]; 16.3 ± 0.87% in assay [10]; 8.6 ± 0.22% in [11]; -45.8 ± 1.54% in assay [12].

The values above are taken from article PMC11588247, “Antimicrobial and antioxidant activities of peptide derived from turmeric plant (Curcuma longa L)” (PLOS ONE, 2024).
